Source: publication PMC8640094, “Diaportones A–C: Three New Metabolites From Endophytic Fungus Diaporthe foeniculina BZM-15” (Frontiers in Chemistry, 2021)

Key:
[1] = system: normal cell line LX-2; test: MTT cytotoxicity assay, normal cell line LX-2; format: cell-based; conditions: 72 h; for inhibition at 1 µM: LX-2, c 1.00 μM; for inhibition at 1 µM / inhibition at 2 µM / inhibition at 4 µM / inhibition at 8 µM / inhibition at 16 µM / inhibition at 32 µM / inhibition at 64 µM / inhibition at 128 µM: three replicates; for inhibition at 2 µM: LX-2, c 2.00 μM; for inhibition at 4 µM: LX-2, c 4.00 μM; for inhibition at 8 µM: LX-2, c 8.00 μM; for inhibition at 16 µM: LX-2, c 16.00 μM; for inhibition at 32 µM: LX-2, c 32.00 μM; for inhibition at 64 µM: LX-2, c 64.00 μM; for inhibition at 128 µM: LX-2, c 128.00 μM; for IC50: MTT, mean ± SD (n = 3)
Description: (§1) The cytotoxicity of all compounds against three human tumor cell lines, SF-268 (CNS cancer), MCF-7 (breast cancer), and HepG2 (hepatoma cancer), and normal cell line LX-2 was tested using the MTT assay. […] All cells were seeded into 96-well plates at 5 × 10^4 cells/ml and incubated at 37°C under a 5% CO2 atmosphere for 24 h. Then, the tested compounds were added. After 72 h, MTT solution was added into each well, which was further incubated. The cell-free supernatant was removed and formazan crystals were subsequently dissolved in DMSO. Optical density (OD) was recorded at 490 nm on a microplate reader to calculate the IC50 values.

[2] = system: SF-268 (CNS cancer); test: MTT cytotoxicity assay, SF-268 cells; format: cell-based, human; conditions: Homo sapiens; for inhibition at 1 µM / inhibition at 2 µM / inhibition at 4 µM / inhibition at 8 µM / inhibition at 16 µM / inhibition at 32 µM / inhibition at 64 µM / inhibition at 128 µM: SF-268, 72 h, SF268 cells, triplicate values, read-out: cell inhibition; for inhibition at 1 µM: c 1.00 μM; for inhibition at 2 µM: c 2.00 μM; for inhibition at 4 µM: c 4.00 μM; for inhibition at 8 µM: c 8.00 μM; for inhibition at 16 µM: c 16.00 μM; for inhibition at 32 µM: c 32.00 μM; for inhibition at 64 µM: c 64.00 μM; for inhibition at 128 µM: c 128.00 μM; for IC50: SF-268, MTT, 72 h, mean ± SD (n = 3), read-out: IC50 SF268
Description: (§2) The cytotoxicity of all compounds against three human tumor cell lines, SF-268 (CNS cancer), MCF-7 (breast cancer), and HepG2 (hepatoma cancer), and normal cell line LX-2 was tested using the MTT assay. Adriamycin was used as a positive control. All cells were seeded into 96-well plates at 5 × 10^4 cells/ml and incubated at 37°C under a 5% CO2 atmosphere for 24 h. Then, the tested compounds were added. After 72 h, MTT solution was added into each well, which was further incubated. The cell-free supernatant was removed and formazan crystals were subsequently dissolved in DMSO. Optical density (OD) was recorded at 490 nm on a microplate reader to calculate the IC50 values.

[3] = system: HepG2 (hepatoma cancer); test: MTT cytotoxicity assay, HepG2 cells; format: cell-based, human; conditions: Homo sapiens; for inhibition at 1 µM / inhibition at 2 µM / inhibition at 4 µM / inhibition at 8 µM / inhibition at 16 µM / inhibition at 32 µM / inhibition at 64 µM / inhibition at 128 µM: HepG2, 72 h, three replicates, read-out: cell inhibition; for inhibition at 1 µM: HepG2, c 1.00 μM; for inhibition at 2 µM: HepG2, c 2.00 μM; for inhibition at 4 µM: HepG2, c 4.00 μM; for inhibition at 8 µM: HepG2, c 8.00 μM; for inhibition at 16 µM: HepG2, c 16.00 μM; for inhibition at 32 µM: HepG2, c 32.00 μM; for inhibition at 64 µM: HepG2, c 64.00 μM; for inhibition at 128 µM: HepG2, c 128.00 μM; for IC50: HepG2, MTT, 72 h, mean ± SD (n = 3)
Description: as §2

[4] = system: MCF-7 (breast cancer); test: MTT cytotoxicity assay, MCF-7 cells; format: cell-based, human; conditions: Homo sapiens; for inhibition at 1 µM / inhibition at 2 µM / inhibition at 4 µM / inhibition at 16 µM / inhibition at 32 µM / inhibition at 64 µM / inhibition at 128 µM / inhibition at 8 µM: MCF7, 72 h, three replicates, read-out: cell inhibition; for inhibition at 1 µM: MCF-7, c 1.00 μM; for inhibition at 2 µM: MCF-7, c 2.00 μM; for inhibition at 4 µM: MCF-7, c 4.00 μM; for inhibition at 16 µM: MCF-7, c 16.00 μM; for inhibition at 32 µM: MCF-7, c 32.00 μM; for inhibition at 64 µM: MCF-7, c 64.00 μM; for inhibition at 128 µM: MCF-7, c 128.00 μM; for IC50: MCF7, MTT, 72 h, mean ± SD (n = 3); for inhibition at 8 µM: MCF-7, c 8.00 μM
Description: as §1

Structure (SMILES) | inhibition at 1 µM [1] | inhibition at 2 µM [1] | inhibition at 4 µM [1] | inhibition at 8 µM [1] | inhibition at 16 µM [1] | inhibition at 32 µM [1] | inhibition at 64 µM [1] | inhibition at 128 µM [1] | IC50 [1] | inhibition at 1 µM [2] | inhibition at 2 µM [2] | inhibition at 4 µM [2] | inhibition at 8 µM [2] | inhibition at 16 µM [2] | inhibition at 32 µM [2] | inhibition at 64 µM [2] | inhibition at 128 µM [2] | IC50 [2] | inhibition at 1 µM [3] | inhibition at 2 µM [3] | further results
COc1cccc2c1C(=O)c1c(O)c3c(c(O)c1C2=O)C[C@@](O)(C(=O)CO)C[C@@H]3O[C@H]1C[C@H](N)[C@H](O)[C@H](C)O1 [Adriamycin, reference compound] | 8.56% | 9.36% | 14.5% | 26.4% | 43.4% | 56.2% | 77.2% | 98.1% | > 40 µM | 35.4% | 51.1% | 69.9% | 76% | 90.9% | 96.4% | 96.5% | 95.1% | 1.9 ± 0.03 µM | 33.1% | 48.5% | inhibition at 4 µM [3]: 66.2%; inhibition at 8 µM [3]: 74.1%; inhibition at 16 µM [3]: 89.4%; inhibition at 32 µM [3]: 86.2%; inhibition at 64 µM [3]: 96.3%; inhibition at 128 µM [3]: 95.3%; IC50 [3]: 2.2 ± 0.03 µM; inhibition at 1 µM [4]: 27.9%; inhibition at 2 µM [4]: 51.4%; inhibition at 4 µM [4]: 66.5%; inhibition at 16 µM [4]: 97%; inhibition at 32 µM [4]: 97.4%; inhibition at 64 µM [4]: 97.1%; inhibition at 128 µM [4]: 97.4%; IC50 [4]: 1.5 ± 0.01 µM
CC(=O)OC(C)C(C)=CC=CC1(C)OC(=O)C(C)C1O (centres unmarked) [compound 1, diaportone A] | 3.47% | 5.08% | 9.11% | 8.98% | 15.6% | 31.7% | 45.1% | 70.3% | > 40 µM | 2.75% | 3.91% | 3.45% | 6.33% | 15.7% | 22.2% | 37.9% | 69.3% | > 40 µM | 8.32% | 14.4% | inhibition at 4 µM [3]: 21.3%; inhibition at 8 µM [3]: 23.1%; inhibition at 16 µM [3]: 30.1%; inhibition at 32 µM [3]: 46.5%; inhibition at 64 µM [3]: 71.3%; inhibition at 128 µM [3]: 80.3%; IC50 [3]: > 40 µM; inhibition at 1 µM [4]: 7.76%; inhibition at 2 µM [4]: 12.6%; inhibition at 4 µM [4]: 17.8%; inhibition at 8 µM [4]: 23.1%; inhibition at 16 µM [4]: 29.1%; inhibition at 32 µM [4]: 32.5%; inhibition at 64 µM [4]: 78.1%; inhibition at 128 µM [4]: 83.4%; IC50 [4]: > 40 µM
C/C(=C\C=C\[C@]1(C)OC(=O)[C@@H](C)[C@@H]1O)[C@H](C)O [compound 2, colletolides A] | 4.42% | 5.31% | 11.3% | 19.3% | 24.4% | 40.4% | 79.4% | 80.5% | > 40 µM | 3.14% | 4.41% | 8.45% | 9.12% | 19.4% | 27.1% | 51.5% | 70.1% | > 40 µM | 2.57% | 3.48% | inhibition at 4 µM [3]: 7.34%; inhibition at 8 µM [3]: 14.6%; inhibition at 16 µM [3]: 19.4%; inhibition at 32 µM [3]: 27.5%; inhibition at 64 µM [3]: 60.5%; inhibition at 128 µM [3]: 75%; IC50 [3]: > 40 µM; inhibition at 1 µM [4]: 1.03%; inhibition at 2 µM [4]: 2.87%; inhibition at 4 µM [4]: 2.35%; inhibition at 8 µM [4]: 12.7%; inhibition at 16 µM [4]: 17.4%; inhibition at 32 µM [4]: 22.6%; inhibition at 64 µM [4]: 53.1%; inhibition at 128 µM [4]: 70.1%; IC50 [4]: > 40 µM
CCCC(O)C1=C(C)C(=O)C(C)C1 (centres unmarked) [compound 3, diaportone B] | 6.32% | 5.31% | 11.4% | 20.6% | 28.3% | 34.8% | 50.5% | 70.2% | > 40 µM | 6.32% | 12% | 19.4% | 21.4% | 27.3% | 28.5% | 34.1% | 59.4% | > 40 µM | 8.12% | 14.3% | inhibition at 4 µM [3]: 19.2%; inhibition at 8 µM [3]: 25.3%; inhibition at 16 µM [3]: 30.6%; inhibition at 32 µM [3]: 42.1%; inhibition at 64 µM [3]: 54.8%; inhibition at 128 µM [3]: 75.3%; IC50 [3]: > 40 µM; inhibition at 1 µM [4]: 8.01%; inhibition at 2 µM [4]: 13.3%; inhibition at 4 µM [4]: 14.8%; inhibition at 8 µM [4]: 21.4%; inhibition at 16 µM [4]: 30.5%; inhibition at 32 µM [4]: 41.4%; inhibition at 64 µM [4]: 62.7%; inhibition at 128 µM [4]: 76.1%; IC50 [4]: > 40 µM
